Consider 11 compounds from ChEMBL document CHEMBL1152099, “C5-piperazinyl-1,4-benzodiazepines, water-soluble, orally bioa vailable CCKB/gastrin receptor antagonists” (Bioorg Med Chem Lett, 1995).

Series [1] concerns the target T1, Cholecystokinin receptor type A (Rattus norvegicus, UniProt P30551).
T1 sequence (P30551 whole entry): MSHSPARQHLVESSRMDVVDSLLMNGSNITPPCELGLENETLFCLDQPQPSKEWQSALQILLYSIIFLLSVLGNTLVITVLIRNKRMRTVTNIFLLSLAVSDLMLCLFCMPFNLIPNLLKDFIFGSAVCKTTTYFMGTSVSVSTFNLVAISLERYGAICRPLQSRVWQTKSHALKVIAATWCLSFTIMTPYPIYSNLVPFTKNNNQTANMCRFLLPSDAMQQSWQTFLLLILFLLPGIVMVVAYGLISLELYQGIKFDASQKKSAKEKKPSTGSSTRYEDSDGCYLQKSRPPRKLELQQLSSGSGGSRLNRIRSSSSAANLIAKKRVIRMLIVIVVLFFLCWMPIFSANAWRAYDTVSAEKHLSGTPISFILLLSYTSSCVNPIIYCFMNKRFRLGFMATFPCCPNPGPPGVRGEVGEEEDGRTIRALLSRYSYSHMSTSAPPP
The experiment in a line: Displacement of [125I]-BH CCK-8S from Cholecystokinin type A receptor in rat pancreas.

For series [2], the target named is T2, Cholecystokinin receptor type A (Rattus norvegicus) (UniProt P30551).
T2 sequence (whole entry): T1 sequence (P30551 whole entry)
The experiment in a line: Compound was tested for its binding affinity by measuring the displacement of [125I]-BH CCK-8S from CCKA receptor in rat pancreas at a concentration of 3000 nM.

Series [3] can be described thus: Compound was tested for solubility in water. The class given is ADME. The settings on record: read-out: S.
Series [4] is described as follows: Bioavailability. The settings on record: rat, in vivo. The class given is ADME, organism-based.
For series [5], the species on record is Rattus norvegicus. Description: Compound was tested for its ability to block pentagastrin-induced single cell firing rate of rat ventromedial hyphalamic (VMH) neurons. In kind it is functional.
Series [6] in a line: Maximum plasma drug concentration was determined. In kind it is ADME, organism-based. The following applies: rat.
The nature of series [7]: Plasma half-life was determined. The following applies: rat. The class given is ADME, organism-based.
Series [8] in a line: Tmax was determined. The class given is ADME, organism-based. The settings on record: rat, in vivo.

A word on the IC50: it is the concentration that inhibits the measured activity by half. A high value points to weaker potency in that assay. Usually inhibition stands for the relative decrease from the control value, in per cent. Broadly, the bioavailability is dose-corrected exposure relative to a reference, in per cent. Usually Cmax stands for the maximum level reached in the sampled fluid or tissue. As usually defined, the half-life is the time in which the quantity being followed falls by half. A lower half-life goes with fast loss. Broadly, the Tmax is the time from dosing to the highest level.

In brackets after ≈: the same amount, converted by molar mass. Where only a bound is given, the exact number is not on record here.

On to `Cc1cccc(NC(=O)N[C@@H]2N=C(c3ccccc3)c3ccccc3N3C[C@H](C)N=C23)c1`, for which the 50% inhibitory concentration (IC50) in series [1] was found to be 1.56 µM.

`CCCN1C(=O)[C@@H](NC(=O)Nc2cccc(C)c2)N=C(N2CCN(C)CC2)c2ccccc21`: the 50% inhibitory concentration (IC50) in series [1] is 1.9 µM.

Regarding `CCCN1C(=O)C(NC(=O)Nc2cccc(C)c2)N=C(N2CCN(C)CC2)c2ccccc21` (configuration not stated), the IC50 in series [1] was 3.2 µM.

`Cc1cccc(NC(=O)NC2N=C(N3CCNCC3)c3ccccc3N(C)C2=O)c1` (configuration not stated) registered an inhibition in series [2] of 3%. This compound showed an IC50 in series [1] greater than 3 µM.

In series [2], `CCCN1C(=O)C(NC(=O)Nc2cccc(CC)c2)N=C(N2CCN(C)CC2)c2ccccc21` (configuration not stated) had an inhibition of 46%. Besides, the IC50 in series [1] is greater than 3 µM.

For the compound `CCCN1C(=O)C(NC(=O)Nc2cccc(C(F)(F)F)c2)N=C(N2CCN(C)CC2)c2ccccc21` (configuration not stated), the 50% inhibitory concentration (IC50) in series [1] amounted to 3.8 µM.

In the case of `Cc1cccc(NC(=O)NC2N=C(N3CCN(C)CC3)c3ccccc3N(C)C2=O)c1` (configuration not stated), the 50% inhibitory concentration (IC50) in series [1] was 4.26 µM. The IC50 values of the last two compounds are within 1.5-fold of each other.

In turn, `CCCN1C(=O)C(NC(=O)Nc2cccc(OC)c2)N=C(N2CCN(C)CC2)c2ccccc21` (configuration not stated) yielded an inhibition in series [2] of 15%. This compound also showed an IC50 in series [1] greater than 3 µM.

Take `Cc1cccc(NC(=O)NC2N=C(N3CCN(C(=O)OC(C)(C)C)CC3)c3ccccc3N(C)C2=O)c1` (configuration not stated): in series [2], the inhibition was determined as 0%. The same compound had an IC50 in series [1] greater than 3 µM.

As for `CCCc1cccc(NC(=O)NC2N=C(N3CCN(C)CC3)c3ccccc3N(CCC)C2=O)c1` (configuration not stated), the IC50 in series [1] was found to be 5.31 µM. This lies in the single-digit micromolar range.

For `CCCN1C(=O)[C@H](NC(=O)Nc2cccc(C)c2)N=C(N2CCN(C)CC2)c2ccccc21`, the solubility in series [3] was determined as 600 µg/mL (≈ 1340 µM). The same compound displayed a bioavailability in series [4] of 51%. The Kb in series [5] stood at 0.0018 µM. Also, the inhibition in series [2] stood at 11%. This compound gave a Cmax in series [6] of 469 ng/mL. In addition, the IC50 in series [1] is greater than 3 µM. This compound also had a half-life in series [7] of 55 min. In addition, the Tmax in series [8] was 5 min.
